# Laboratory results as given in US20100323031A1, “Synergistic combination to enhance blood glucose and insulin metabolism” (GLYKON TECHNOLOGIES GROUP, LLC, priority 2009, published 2010).
# Marks after values point to notes of the source that are not given here.
# Experiments:
# Male Wistar rats = conditions: equivalent to 2,170 mg HCA free acid; cited from earlier work
# [1] = tested on: Human morbidly obese diabetics; conditions: published literature, U.S. Pat. No. 6,207,714; cited from earlier work
# Human - sedentary = conditions: 3 grams HCA as the free acid equivalent; cited from earlier work
# [2] = tested on: streptozotocin (STZ)-induced diabetes; assay: Pilot animal streptozotocin-induced diabetes trial, blood glucose by glucometer; format: in vivo, male Wistar albino rats; conditions: STD Herbal 250 mg/kg
# Method: The synergism of the formula is reflected in findings in an animal trial of induced diabetes treated with Metformin. To produce streptozotocin (STZ)-induced diabetes in experimental rats, male Wistar albino rats of 12 weeks age were allowed to fast 24 hrs prior to injection with freshly prepared STZ in citrate buffer […] (45 mg/kg, i.p). […] However, an additional arm of similarly-induced diabetic rats that were older and much sicker was added to test the herbal mixture prepared to produce the relative percentages of each ingredient as in Example 1 given above, here termed “STD Herbal.” After an overnight fast, the samples suspended in 5% gum acacia were fed by gastric intubations with a syringe. […] The blood glucose level was determined by using an electronic glucometer (Accu Check, Roche Diagnostic) and the results are tabulated in table 4. n=6 animals in each group. Parenthesis value indicate percentage reduction of blood sugar level; *P<0.01 compared with initial level of blood glucose (0 h) in the respective group. Data were analyzed by repeated measure ANOVA followed by Dunnett test.
# [3] = tested on: Aged diabetic obese Zucker rat; conditions: human-equivalent dose, 6:1 rat to human multiplier; cited from earlier work
compound,measurement,setting,value
potassium salt of (−)-hydroxycitric acid,efficacy in reducing blood glucose at smaller dosage,Male Wistar rats,ineffective
same,lowest dose of HCA as free acid equivalent found efficacious in reducing blood glucose,[1],3 grams
"O=C([O-])C[C@@](O)(C(=O)[O-])[C@H](O)C(=O)[O-].O=C([O-])C[C@@](O)(C(=O)[O-])[C@H](O)C(=O)[O-].[Ca+2].[Ca+2].[Ca+2] [calcium salt, calcium salt of (−)-hydroxycitric acid]",efficacy in reducing blood glucose,Human - sedentary,ineffective
CN(C)C(=N)N=C(N)N [Metformin],"Blood glucose level, Initial (0 hr)","[2]; 0 hr, before treatment, overnight fast, Metformin 150 mg/kg by gastric intubation, n=6, in mg/dL (unit assumed)",329.2 ± 5.25
same,"percentage reduction of blood sugar level, +1 hr","[2]; +1 hr vs initial (0 hr), Metformin 150 mg/kg",(17.49) %
same,"Blood glucose level, Treatment +1 hr","[2]; +1 hr, Metformin 150 mg/kg by gastric intubation, n=6, in mg/dL (unit assumed)",271.6 ± 4.0
same,"percentage reduction of blood sugar level, +2 hr","[2]; +2 hr vs initial (0 hr), Metformin 150 mg/kg",(34.87) %
same,"Blood glucose level, Treatment +2 hr","[2]; +2 hr, Metformin 150 mg/kg by gastric intubation, n=6, in mg/dL (unit assumed)",214.4 ± 3.17*
same,"percentage reduction of blood sugar level, +3 hr","[2]; +3 hr vs initial (0 hr), Metformin 150 mg/kg",(46.38) %
same,"Blood glucose level, Treatment +3 hr","[2]; +3 hr, Metformin 150 mg/kg by gastric intubation, n=6, in mg/dL (unit assumed)",176 ± 6.7*
same,"percentage reduction of blood sugar level, +4 hr","[2]; +4 hr vs initial (0 hr), Metformin 150 mg/kg",(53.52) %
same,"Blood glucose level, Treatment +4 hr","[2]; +4 hr, Metformin 150 mg/kg by gastric intubation, n=6, in mg/dL (unit assumed)",153 ± 3.31*
potassium-calcium salt of (−)-hydroxycitric acid,"lowest stand-alone dose shown to be effective, as HCA free acid equivalent",[3],"3,276 mg"
